Experiment [1] concerns the target PBK (Homo sapiens (Human), UniProt Q96KB5). Description: Kinase assay (IMAP fluorescence polarization, FITC-labeled histone H3 peptide). Format: biochemical. In short, it runs like this:
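PBK at 0.8 ng/µL with 100 nM FITC-histone H3 peptide and 50 µM ATP in HEPES pH 7.4, 0.3 mM MgCl2, 2 mM DTT, reacted 1 h at room temperature. Phosphorylation read by IMAP fluorescence polarization; IC50 from four-parameter fit.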
In general terms: Fluorescence polarisation rises when a labelled molecule tumbles more slowly, as on binding a larger partner.

Experiment [2] relates to 22Rv1 cells. Description: Cell-based assay, cellular growth (Cell Counting Kit-8, 72 hours). Conditions: Homo sapiens. For orientation: Tetrazolium assays rely on reduction of a dye to a coloured formazan, in cell work by metabolically active cells.
Experiment [3] deals with BT-549 cells. The description is as above. Particulars: Homo sapiens, BT549 cells. The procedure:
(§1) 100 micro-L of cell suspension was seeded onto 96-well microtiter plate (ViewPlate-96FTC, PerkinElmer). […] Cellular growth was determined using Cell Counting Kit-8 (DOJINDO) at 72 hours after the exposure of the candidate inhibitors. […] Accurate IC50 values were calculated as described previously.

Experiment [4] concerns A549 cells. The description is as above. Conditions: Homo sapiens, A549, 72 h. In short, it runs like this: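 After compound exposure of cells in 96-well plates, growth was measured colorimetrically and converted into IC50 values.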
In experiment [5] the test system is T47D cells. The experiment is described as above. Particulars: Homo sapiens, T47D, 72 h. As to the method:
as §1

Experiment [6] deals with HT-1197 cells. Briefly: Cell-based assay, cellular growth (Cell Counting Kit-8, 72 hours), PBK-negative control cells. Conditions: Homo sapiens, HT1197, 72 h. The procedure: as §1

Three compounds from US8962648B2, “Tricyclic compounds and PBK inhibitors containing the same” (OncoTherapy Science, Inc., priority 2010, dated 2015) can be followed below.

Counter-ions that a name gives are not always drawn. Like-named read-outs stand apart in the source and are kept apart here.

Chain of PBK (Q96KB5 whole entry): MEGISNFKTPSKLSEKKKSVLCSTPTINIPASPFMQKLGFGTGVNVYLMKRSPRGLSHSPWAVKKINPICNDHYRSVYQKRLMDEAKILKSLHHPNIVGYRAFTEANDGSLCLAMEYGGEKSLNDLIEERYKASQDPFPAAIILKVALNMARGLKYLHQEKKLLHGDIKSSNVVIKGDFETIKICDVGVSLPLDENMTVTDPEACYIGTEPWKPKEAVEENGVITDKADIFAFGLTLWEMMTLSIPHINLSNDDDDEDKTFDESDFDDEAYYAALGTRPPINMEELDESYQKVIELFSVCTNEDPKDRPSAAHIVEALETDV

As for `C[C@@H](CN)c1ccc(-c2c(O)ccc3[nH]c(=O)c4sccc4c23)cc1` [Compound 1160, (R)-9-(4-(1-aminopropan-2-yl)phenyl)-8-hydroxythieno[2,3-c]quinolin-4(5H)-one hydrochloride], the half-maximal inhibitory concentration (IC50) stood at 0.64 nM in experiment [1] (PBK 0.8 ng/micro-L, 50 micro-M ATP, 100 nM FITC-labeled histone H3 peptide, room temperature 1 hour); 69 nM in experiment [2]; 54 nM in experiment [3]; 56 nM in experiment [4]; 57 nM in experiment [5]; 230 nM in experiment [6].

As for `Cc1cc(O)c(-c2ccc([C@@H](C)CN)cc2)c2c1[nH]c(=O)c1sccc12` [Compound 1169, (R)-9-(4-(1-aminopropan-2-yl)phenyl)-8-hydroxy-6-methylthieno[2,3-c]quinolin-4(5H)-one hydrobromide], the half-maximal inhibitory concentration (IC50) came out at 22 nM in experiment [2], 13 nM in experiment [3], 23 nM in experiment [4] and 24 nM in experiment [5].

On to `Cc1cc(O)c(-c2ccc(CC(C)N)cc2)c2c1[nH]c(=O)c1sccc12` (stereo not drawn) [Compound 1242, 9-(4-(2-aminopropyl)phenyl)-8-hydroxy-6-methylthieno[2,3-c]quinolin-4(5H)-one hydrochloride], for which the IC50 came out at 37 nM in experiment [1]; 110 nM in experiment [3]; 120 nM in experiment [4]; 150 nM in experiment [5]; 420 nM in experiment [6].

One may read the IC50 as the concentration needed to halve the response being measured.
